Assay results taken from ChEMBL document CHEMBL1201862, “PubChem BioAssay data set” (2004).
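Test compounds were applied to cells in 96-well plates for 48 hours at 5 doses. GI50 = concentration required for 50% inhibition of growth.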 The source made the active and inactive calls. Rule as the data show it: active = GI50 up to about 1.1 µM and inactive = higher.

Legend:
Assay in all cases: growth of human tumour cells (NCI), 48 h
[1] = tested on: A498
[2] = tested on: A549
[3] = tested on: COLO 205
[4] = tested on: HCC 2998
[5] = tested on: HT-29
[6] = tested on: Hs-578T
[7] = tested on: IGROV-1
[8] = tested on: KM12
[9] = tested on: LOX IMVI
[10] = tested on: MDA-MB-231
[11] = tested on: MDA-MB-435
[12] = tested on: MDA-N
[13] = tested on: NCI-H460
[14] = tested on: OVCAR-3
[15] = tested on: PC-3
[16] = tested on: SF-295
[17] = tested on: SK-OV-3
[18] = tested on: T47D
[19] = tested on: U-251
[20] = tested on: UO-31

Measured: GI50

Cc1ccc(/N=N/c2c(C)nn(C(=O)CC(=O)Nc3ccc(Cl)cc3)c2C)cc1C
inactive: [1] 70.1 µM | [2] > 100 µM | [3] 90.4 µM | [4] > 100 µM | [5] > 100 µM | [6] 7.05 µM | [7] 37.2 µM | [8] > 100 µM | [9] 96.8 µM | [10] 24.3 µM | [11] > 100 µM | [12] > 100 µM | [13] > 100 µM | [14] > 100 µM | [15] > 100 µM | [16] 48.3 µM | [17] 16.9 µM | [18] > 100 µM | [19] 26.6 µM | [20] 37.5 µM

COc1cc2c(cc1OC)C1Cc3ccccc3CCN1CC2 (stereo not given)
inactive: [1] > 100 µM | [2] > 100 µM | [3] 64.4 µM | [4] 44 µM | [5] 48.1 µM | [6] > 100 µM | [7] > 100 µM | [8] > 100 µM | [9] > 100 µM | [10] > 100 µM | [11] > 100 µM | [12] > 100 µM | [13] > 100 µM | [14] > 100 µM | [15] 62.1 µM | [16] 81.1 µM | [17] > 100 µM | [18] > 100 µM | [19] > 100 µM | [20] 27.2 µM

Oc1ccccc1C(Sc1nc2ccccc2s1)Sc1nc2ccccc2s1
inactive: [1] > 100 µM | [2] > 100 µM | [3] 52.4 µM | [4] > 100 µM | [5] > 100 µM | [6] 24.1 µM | [7] 29.9 µM | [8] 89.1 µM | [9] 67.5 µM | [10] > 100 µM | [11] 73.5 µM | [12] > 100 µM | [13] > 100 µM | [14] 31.3 µM | [15] 67.1 µM | [16] 41.6 µM | [17] > 100 µM | [18] 19.3 µM | [19] 57.7 µM | [20] 6.55 µM

C[C@]12C=CC(=O)C=C1CC[C@@H]1[C@@H]2CC[C@@]2(C)[C@H]1CC[C@]2(O)C(N)=O
inactive: [1] > 100 µM | [2] > 100 µM | [3] > 100 µM | [4] > 100 µM | [5] > 100 µM | [6] > 100 µM | [7] > 100 µM | [8] > 100 µM | [9] > 100 µM | [10] > 100 µM | [11] > 100 µM | [12] > 100 µM | [13] > 100 µM | [14] > 100 µM | [15] > 100 µM | [16] > 100 µM | [17] > 100 µM | [18] > 100 µM | [19] > 100 µM | [20] > 100 µM

C=CC[C@]1(C2=NC(C)(C)CO2)c2ccccc2-c2ccccc2[C@H]1C(C)=O
inactive: [1] 7.67 µM | [2] 9.31 µM | [3] 4.41 µM | [4] 8.11 µM | [5] 4.19 µM | [6] 6.5 µM | [7] 8.38 µM | [8] 5.73 µM | [9] 10.6 µM | [10] 14.2 µM | [11] 3.64 µM | [12] 2.74 µM | [13] 6.03 µM | [14] 3.13 µM | [15] 6.41 µM | [16] 4.61 µM | [17] 9.31 µM | [18] 13 µM | [19] 8.15 µM | [20] 14.1 µM

OC1(c2ccc3ccccc3c2)c2ccc3ccccc3c2C2=NCCN21 (stereo not given)
inactive: [1] > 100 µM | [2] 46.5 µM | [3] > 100 µM | [4] 74.1 µM | [5] > 100 µM | [6] 24.5 µM | [7] > 100 µM | [8] > 100 µM | [9] 91.8 µM | [10] 76.4 µM | [11] > 100 µM | [12] > 100 µM | [13] 23.6 µM | [14] > 100 µM | [15] > 100 µM | [16] 41.4 µM | [17] > 100 µM | [18] > 100 µM | [19] 45.7 µM | [20] 40.9 µM

CSc1nc2c3ccccc3ccn2c1C(=O)N/N=C/c1ccccc1
inactive: [1] 31.5 µM | [2] 56.9 µM | [3] > 73.6 µM | [4] > 100 µM | [5] > 100 µM | [6] 30.8 µM | [7] 33.7 µM | [8] > 100 µM | [9] > 100 µM | [10] 18.1 µM | [11] > 100 µM | [12] 97.3 µM | [13] 17.3 µM | [14] 17.9 µM | [15] > 100 µM | [16] 24 µM | [17] 19.6 µM | [18] 27.9 µM | [19] 15.8 µM | [20] 21.8 µM

COC(=O)C1(C)CCc2c(ccc3ccccc23)C1=O (stereo not given)
inactive: [1] 32.7 µM | [2] 39.3 µM | [3] 21.3 µM | [4] 36.1 µM | [5] 40.2 µM | [6] 47.2 µM | [7] 26.5 µM | [8] 25.8 µM | [9] 36.1 µM | [10] 49.1 µM | [11] 34.4 µM | [12] 27 µM | [13] 40.5 µM | [14] 30.1 µM | [15] 40.9 µM | [16] 39.7 µM | [17] 71.1 µM | [18] 24.5 µM | [19] 46.5 µM | [20] 33.3 µM

COC(=O)C(CCCCN)NC(=O)C(CCCCN)NC(C)=O.Cc1ccc(C(=O)Nc2ccc(S(=O)(=O)O)c3cc(S(=O)(=O)O)cc(S(=O)(=O)O)c23)cc1NC(=O)c1cccc(NC(=O)Nc2cccc(C(=O)Nc3cc(C(=O)Nc4ccc(S(=O)(=O)O)c5cc(S(=O)(=O)O)cc(S(=O)(=O)O)c45)ccc3C)c2)c1
inactive: [1] > 50 µM | [2] > 50 µM | [3] > 50 µM | [4] > 50 µM | [5] > 50 µM | [6] 39.1 µM | [7] > 50 µM | [8] > 50 µM | [9] > 50 µM | [10] 16.2 µM | [11] > 50 µM | [12] > 50 µM | [13] > 50 µM | [14] > 50 µM | [15] > 50 µM | [16] > 50 µM | [17] > 50 µM | [18] > 50 µM | [19] > 50 µM | [20] > 50 µM
